From article PMC6199744, “Development of Chemical Proteomics for the Folateome and Analysis of the Kinetoplastid Folateome” (ACS Infectious Diseases, 2018) come the findings set out here.

Several values for one entry are separate records, joined by “and”; a condition that tells them apart may be missing. Equal entries are not always repeated. Where two headings read alike, the source gives them in different places.

Holding throughout (format): binding
The target of assay [1] is T1, HeLa cell extract proteins (Homo sapiens, UniProt O60701).
T1 construct: endogenous in cells; host or cells: HeLa cell extract
T1 sequence (O60701 1-494): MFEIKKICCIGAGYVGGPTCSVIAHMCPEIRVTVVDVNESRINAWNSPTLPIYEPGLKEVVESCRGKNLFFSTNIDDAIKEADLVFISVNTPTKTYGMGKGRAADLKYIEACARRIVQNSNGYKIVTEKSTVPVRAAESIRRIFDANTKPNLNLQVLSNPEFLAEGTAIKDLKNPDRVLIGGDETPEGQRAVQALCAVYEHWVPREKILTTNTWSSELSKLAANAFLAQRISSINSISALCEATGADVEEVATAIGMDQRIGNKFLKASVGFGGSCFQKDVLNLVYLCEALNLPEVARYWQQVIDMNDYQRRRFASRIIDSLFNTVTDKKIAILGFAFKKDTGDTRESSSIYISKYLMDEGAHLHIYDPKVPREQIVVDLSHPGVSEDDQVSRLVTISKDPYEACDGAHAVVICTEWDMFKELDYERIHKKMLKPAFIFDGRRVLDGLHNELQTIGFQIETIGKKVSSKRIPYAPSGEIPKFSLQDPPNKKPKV

The target in assay [2] is T2, HeLa cell extract proteins (Homo sapiens, UniProt P24752).
T2 construct: endogenous in cells; host or cells: HeLa cell extract
T2 sequence (P24752 34-427): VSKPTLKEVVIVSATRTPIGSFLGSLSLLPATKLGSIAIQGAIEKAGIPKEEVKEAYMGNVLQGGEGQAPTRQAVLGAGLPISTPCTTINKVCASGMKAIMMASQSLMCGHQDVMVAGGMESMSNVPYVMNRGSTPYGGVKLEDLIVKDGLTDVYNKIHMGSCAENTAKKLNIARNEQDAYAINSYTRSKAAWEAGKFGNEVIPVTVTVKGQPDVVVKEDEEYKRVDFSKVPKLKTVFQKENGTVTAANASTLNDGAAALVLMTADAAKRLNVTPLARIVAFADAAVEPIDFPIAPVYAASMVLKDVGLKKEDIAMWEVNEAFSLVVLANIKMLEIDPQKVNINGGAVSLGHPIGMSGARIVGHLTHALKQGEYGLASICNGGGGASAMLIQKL
The conditions noted are these: protein ACAT1; HeLa.

Assay [3] deals with T3, HeLa cell extract proteins (Homo sapiens, UniProt P49773).
T3 construct: endogenous in cells; host or cells: HeLa cell extract
To be noted: HeLa.

Assay [4] addresses T4, HeLa cell extract proteins (Homo sapiens, UniProt P50502).
T4 construct: endogenous in cells; host or cells: HeLa cell extract
T4 sequence (P50502 1-369): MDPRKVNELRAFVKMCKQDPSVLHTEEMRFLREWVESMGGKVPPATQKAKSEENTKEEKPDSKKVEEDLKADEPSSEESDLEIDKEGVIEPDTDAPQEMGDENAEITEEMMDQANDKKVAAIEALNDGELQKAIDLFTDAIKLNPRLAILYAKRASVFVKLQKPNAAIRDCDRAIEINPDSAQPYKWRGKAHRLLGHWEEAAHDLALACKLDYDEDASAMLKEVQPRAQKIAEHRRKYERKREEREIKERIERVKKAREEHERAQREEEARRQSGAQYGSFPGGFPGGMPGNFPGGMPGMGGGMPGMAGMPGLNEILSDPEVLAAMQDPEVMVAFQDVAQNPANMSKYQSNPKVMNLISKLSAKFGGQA
The conditions noted are these: HeLa.

Assay [5] has as its target T5, HeLa cell extract proteins (Homo sapiens, UniProt P53634).
T5 construct: endogenous in cells; host or cells: HeLa cell extract
To be noted: HeLa.

Assay [6] has as its target T6, HeLa cell extract proteins (Homo sapiens, UniProt Q02218).
T6 construct: endogenous in cells; host or cells: HeLa cell extract
T6 sequence (Q02218 41-1023): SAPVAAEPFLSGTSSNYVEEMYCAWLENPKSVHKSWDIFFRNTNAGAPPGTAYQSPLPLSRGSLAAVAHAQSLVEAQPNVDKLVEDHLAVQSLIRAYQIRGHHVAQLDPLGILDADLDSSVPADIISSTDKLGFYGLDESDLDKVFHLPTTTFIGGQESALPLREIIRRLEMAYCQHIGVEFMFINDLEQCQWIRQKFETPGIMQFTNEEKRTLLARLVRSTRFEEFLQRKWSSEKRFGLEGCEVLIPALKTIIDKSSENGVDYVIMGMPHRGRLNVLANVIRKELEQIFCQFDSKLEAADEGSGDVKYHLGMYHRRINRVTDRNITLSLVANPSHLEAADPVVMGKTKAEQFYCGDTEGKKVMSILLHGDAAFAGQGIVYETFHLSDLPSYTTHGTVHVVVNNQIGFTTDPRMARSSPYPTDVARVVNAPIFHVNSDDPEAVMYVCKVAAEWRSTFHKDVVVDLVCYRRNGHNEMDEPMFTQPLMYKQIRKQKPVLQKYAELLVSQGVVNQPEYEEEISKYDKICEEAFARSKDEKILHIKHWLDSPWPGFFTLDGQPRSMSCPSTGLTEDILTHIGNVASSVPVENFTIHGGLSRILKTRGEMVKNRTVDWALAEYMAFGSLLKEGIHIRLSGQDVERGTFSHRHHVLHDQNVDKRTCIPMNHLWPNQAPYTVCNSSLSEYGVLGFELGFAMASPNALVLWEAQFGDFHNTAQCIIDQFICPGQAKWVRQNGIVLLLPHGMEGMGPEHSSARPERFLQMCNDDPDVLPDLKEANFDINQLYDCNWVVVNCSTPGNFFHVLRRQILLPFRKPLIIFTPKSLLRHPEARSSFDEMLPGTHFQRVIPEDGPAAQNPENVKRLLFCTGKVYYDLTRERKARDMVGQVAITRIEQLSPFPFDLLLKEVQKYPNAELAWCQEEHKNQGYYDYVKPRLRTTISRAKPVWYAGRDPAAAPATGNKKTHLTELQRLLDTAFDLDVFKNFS
The conditions noted are these: HeLa.

Assay [7] concerns the target T7, HeLa cell extract proteins (Homo sapiens, UniProt Q15120).
T7 construct: endogenous in cells; host or cells: HeLa cell extract
The conditions noted are these: HeLa.

Assay [8] deals with T8, HeLa cell extract proteins (Homo sapiens, UniProt Q15436).
T8 construct: endogenous in cells; host or cells: HeLa cell extract
The conditions noted are these: HeLa; protein SEC23A.

Assay [9] has as its system HeLa cell extract proteins.
Setting [10] is: protein ST13 (HSC70-INTERACTING PROTEIN.).
Where [11] appears, read: HeLa, protein A8MV93_HUMAN (SIMILAR TO CYTOCHROME C.).
[12] abbreviates: HeLa, protein CTNNA1 (ISOFORM 2 OF CATENIN ALPHA-1.).

T7 sequence (Q15120 whole entry): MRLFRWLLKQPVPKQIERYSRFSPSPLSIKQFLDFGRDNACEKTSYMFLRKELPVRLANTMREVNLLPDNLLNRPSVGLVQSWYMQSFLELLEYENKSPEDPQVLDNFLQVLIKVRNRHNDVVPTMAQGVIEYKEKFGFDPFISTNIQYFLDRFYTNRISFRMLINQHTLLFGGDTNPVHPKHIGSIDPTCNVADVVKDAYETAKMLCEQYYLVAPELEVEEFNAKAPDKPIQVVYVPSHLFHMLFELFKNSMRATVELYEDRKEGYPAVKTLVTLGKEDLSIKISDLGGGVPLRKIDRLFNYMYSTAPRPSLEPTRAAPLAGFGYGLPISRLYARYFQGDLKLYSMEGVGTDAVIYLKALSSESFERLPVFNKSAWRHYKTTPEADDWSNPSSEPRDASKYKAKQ
T8 sequence (Q15436 whole entry): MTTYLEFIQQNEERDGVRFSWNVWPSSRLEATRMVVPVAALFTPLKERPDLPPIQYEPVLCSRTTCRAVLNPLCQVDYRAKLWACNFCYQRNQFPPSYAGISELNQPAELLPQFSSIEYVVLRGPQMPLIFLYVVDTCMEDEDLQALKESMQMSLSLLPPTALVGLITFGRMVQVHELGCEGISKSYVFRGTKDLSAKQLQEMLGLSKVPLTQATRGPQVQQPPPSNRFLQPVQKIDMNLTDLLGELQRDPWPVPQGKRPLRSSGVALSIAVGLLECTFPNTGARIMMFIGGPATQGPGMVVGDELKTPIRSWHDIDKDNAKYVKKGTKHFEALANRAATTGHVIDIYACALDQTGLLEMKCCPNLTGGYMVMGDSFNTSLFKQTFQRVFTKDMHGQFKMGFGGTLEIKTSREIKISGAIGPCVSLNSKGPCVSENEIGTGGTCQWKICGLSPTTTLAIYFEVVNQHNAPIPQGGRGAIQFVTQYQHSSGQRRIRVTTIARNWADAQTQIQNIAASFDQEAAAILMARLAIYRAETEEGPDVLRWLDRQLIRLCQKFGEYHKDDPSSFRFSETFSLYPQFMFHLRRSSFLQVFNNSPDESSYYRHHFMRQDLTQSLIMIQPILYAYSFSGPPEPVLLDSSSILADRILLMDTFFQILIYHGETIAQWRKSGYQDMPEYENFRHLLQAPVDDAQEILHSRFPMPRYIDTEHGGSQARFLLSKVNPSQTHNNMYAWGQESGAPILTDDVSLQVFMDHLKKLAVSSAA
T5 sequence (P53634 25-463): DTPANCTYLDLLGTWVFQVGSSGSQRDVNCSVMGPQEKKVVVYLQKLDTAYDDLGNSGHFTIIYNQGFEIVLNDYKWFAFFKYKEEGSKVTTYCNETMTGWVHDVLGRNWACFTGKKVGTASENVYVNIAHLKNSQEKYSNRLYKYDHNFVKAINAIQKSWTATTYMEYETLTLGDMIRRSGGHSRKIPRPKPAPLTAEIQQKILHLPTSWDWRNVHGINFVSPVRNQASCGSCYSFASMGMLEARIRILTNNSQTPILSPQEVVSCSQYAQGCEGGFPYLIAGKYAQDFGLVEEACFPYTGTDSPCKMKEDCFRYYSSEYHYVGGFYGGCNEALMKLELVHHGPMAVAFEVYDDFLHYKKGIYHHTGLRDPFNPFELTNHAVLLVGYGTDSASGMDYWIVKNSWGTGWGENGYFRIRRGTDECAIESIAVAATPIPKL
T3 sequence (P49773 whole entry): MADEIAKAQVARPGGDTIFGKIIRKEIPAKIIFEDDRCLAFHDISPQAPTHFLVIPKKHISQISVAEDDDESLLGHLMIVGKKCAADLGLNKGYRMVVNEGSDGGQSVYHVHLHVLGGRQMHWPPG

In the case of `CCCCCCOc1cccc(Cc2cnc(N)nc2N)c1` [compound 2], the “fold changes relative to vehicle control” value in [1] (protein UGDH; HeLa) is reported as 1.76; in assay [2] it was 1.75; in assay [3] (protein HINT1) it was 0.99; in assay [4] (setting [10]), 2.63 fold; in assay [5] (protein CTSC), 0.95; in assay [6] (protein OGDH), 1.26. Moreover, the “fold changes relative to vehicle control” value in assay [7] (captured protein PDK3) turned out to be 0.49; in [8] it was 1.07; in [9] (setting [11]) it was 2.46 fold; in [9] (setting [12]), 2.1 fold; in assay [9] (HeLa, protein EIF5A (ISOFORM 2 OF EUKARYOTIC TRANSLATION INITIATION FACTOR 5A-1.)), 2.05 fold; in assay [9] (HeLa, protein LOC646960) it was 1.08. In addition, the “fold changes relative to vehicle control” value in assay [9] (HeLa, protein LOC654188 (SIMILAR TO PEPTIDYLPROLYL ISOMERASE A-LIKE.)) amounted to 2.15 fold; in [9] (HeLa, protein NME1-NME2 (NUCLEOSIDE DIPHOSPHATE KINASE.)), 2.13 fold; in [9] (protein EIF1AP1, HeLa) it was 1.77; in assay [9] (protein LOC442497, HeLa), 1.38; in [9] (protein RPLP0-LIKE, HeLa), 1.23.

Take `Nc1nc2cccc(-c3ccccc3)c2n1Cc1ccc(Cl)c(Cl)c1` [compound 3]: the “fold changes relative to vehicle control” value in [1] (protein UGDH; HeLa) is reported as 0.78; in [2] it was 0.84; in assay [3] (protein HINT1) it was 1.17; in assay [4] (setting [10]) it was 1.09 fold; in assay [5] (protein CTSC), 0.86; in assay [6] (protein OGDH), 1.03. Also, the “fold changes relative to vehicle control” value was 0.86 in assay [7] (captured protein PDK3); 1.04 in assay [8]; 0.88 fold and 1 fold in [9]; 1.12 fold in assay [9] (setting [11]); 2.07 fold in assay [9] (setting [12]); 1.08 in assay [9] (HeLa, protein LOC646960). Besides, the “fold changes relative to vehicle control” value in assay [9] (HeLa, protein LOC654188 (SIMILAR TO PEPT[…] A-LIKE.)) is on record as 0.91 fold; in [9] (protein EIF1AP1, HeLa), 0.97; in assay [9] (protein LOC442497, HeLa), 1.03; in assay [9] (protein RPLP0-LIKE, HeLa), 1.04.

On to `NCCOCCOCC(=O)Nc1nc2ncc(CNc3ccc(C(=O)NC(CCC(=O)O)C(=O)O)cc3)nc2c(=O)[nH]1` (stereo not drawn) [compound 6], for which the “fold changes relative to vehicle control” value amounted to 1.41 in assay [1] (HeLa; protein UGDH); 1.31 in assay [2]; 1.33 in assay [3] (captured protein HINT1); 1.3 in [4] (protein ST13); 0.82 in assay [5] (protein CTSC (DIPEPTIDYL-PEPTIDASE 1 PRECURSOR)); 1.02 in assay [6] (captured protein OGDH). The “fold changes relative to vehicle control” value turned out to be 0.87 in [7] (protein PDK3); 0.89 in assay [8]; 1.27 in assay [9] (HeLa, captured protein EIF1AP1); 1.13 in assay [9] (HeLa, captured protein LOC442497); 1.25 in assay [9] (HeLa, protein ABCB7 (ISOFORM 2 OF ATP-BINDING CASSETTE SUB-FAMILY B MEMBER 7, MIT[…])); 1.17 in [9] (HeLa, protein ASAH1 (N-ACYLSPHINGOSINE AMIDOHYDROLASE (ACID CERAMIDASE) 1 ISOFORM B)). The “fold changes relative to vehicle control” value in [9] (HeLa, protein GTPBP3 (ISOFORM 2 OF TRNA MO[…] GTPBP3, MIT[…])) is listed as 1.03; in assay [9] (HeLa, protein LOC654188), 1.3; in [9] (HeLa, protein MYL6 (ISOFORM SMOOTH MUSCLE OF MYOSIN LIGHT POLYPEPTIDE 6)), 1.7; in assay [9] (HeLa, protein NME1-NME2) it was 1.27; in assay [9] (HeLa, protein PSMA1 (ISOFORM LONG OF […] ALPHA TYPE 1)), 1.05; in [9] (HeLa, protein PSME1 ([…] SUBUNIT 1 ISOFORM 2)), 1.04. The “fold changes relative to vehicle control” value was 0.88 in [9] (HeLa, protein RPLP0-LIKE); 1.03 in [9] (protein HIST2H2BA, HeLa); 1.05 in assay [9] (protein LOC646960, HeLa).
